Source: US10167262B2, “Herbicidal substituted 3-arylpyrazoles” (FMC CORPORATION, priority 2014, dated 2019)

Columns and labels:
Type in all cases: in vivo
[1] = tested on: barnyardgrass (Echinochloa crus-galli); experiment: Test A pre-/postemergence greenhouse herbicide test, visual injury rating 0-100
In short: (§1)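 Each species was treated both before emergence, via soil spray onto a loam–sand blend, and after emergence at the one- to two-leaf stage. Plants stayed in the greenhouse around 10 days before visual injury assessment.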

[2] = tested on: corn (Zea mays); experiment: as above
In short: as §1

[3] = tested on: giant foxtail (Setaria faberii); experiment: as above
In short: as §1

[4] = tested on: large (Lg) crabgrass (Digitaria sanguinalis); experiment: as above
In short: as §1

[5] = tested on: morningglory (Ipomoea spp.); experiment: as above
In short: as §1

[6] = tested on: pigweed (Amaranthus retroflexus); experiment: as above
In short: as §1

[7] = tested on: velvetleaf (Abutilon theophrasti); experiment: as above
In short: as §1

[8] = tested on: wheat (Triticum aestivum); experiment: as above
In short: as §1

[9] = tested on: barnyardgrass (Echinochloa crus-galli); experiment: Test B flooded paddy test, plant response rating 0-100; details: Flood, 250 g ai/ha; scale 0 to 100 (0 no effect, 100 complete control); 13 to 15 days
In short: (§2)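 In-water treatment: compound dosed into 3 cm flood over soil, water level unchanged throughout. Controls run alongside; visual assessment at day 13–15.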

[10] = tested on: ducksalad (Heteranthera limosa); experiment: as above; details: Flood, 250 g ai/ha; scale 0 to 100 (0 no effect, 100 complete control); 13 to 15 days
In short: as §2

[11] = tested on: rice (Oryza sativa); experiment: as above; details: Flood, 250 g ai/ha; scale 0 to 100 (0 no effect, 100 complete control); 13 to 15 days
In short: as §2

[12] = tested on: sedge, umbrella (small-flower umbrella sedge, Cyperus difformis); experiment: as above; details: Flood, 250 g ai/ha; scale 0 to 100 (0 no effect, 100 complete control); 13 to 15 days
In short: as §2

## O=C(c1ccccc1)c1cn(CC2CC2)nc1-c1cc(Cl)cc(Cl)c1 [Compound 41]
[1]; Postemergence, 125 g ai/ha
  Plant response rating (0 to 100 scale), Barnyardgrass: 0
[1]; Postemergence, 500 g ai/ha
  Plant response rating (0 to 100 scale), Barnyardgrass: 0
[1]; Preemergence, 125 g ai/ha
  Barnyardgrass plant response rating (0 = no effect, 100 = complete control): 0
[1]; Preemergence, 500 g ai/ha
  Plant response rating (0 to 100 scale), Barnyardgrass: 0
[2]; Postemergence, 125 g ai/ha
  Plant response rating (0 to 100 scale), Corn: 0
[2]; Postemergence, 500 g ai/ha
  Plant response rating (0 to 100 scale), Corn: 0
[2]; Preemergence, 125 g ai/ha
  Corn plant response rating (0 = no effect, 100 = complete control): 0
[2]; Preemergence, 500 g ai/ha
  Plant response rating (0 to 100 scale), Corn: 0
[3]; Postemergence, 125 g ai/ha
  Plant response rating (0 to 100 scale), Foxtail, Giant: 0
[3]; Postemergence, 500 g ai/ha
  Plant response rating (0 to 100 scale), Foxtail, Giant: 0
[3]; Preemergence, 125 g ai/ha
  Foxtail, Giant plant response rating (0 = no effect, 100 = complete control): 0
[3]; Preemergence, 500 g ai/ha
  Plant response rating (0 to 100 scale), Foxtail, Giant: 0
[4]; Postemergence, 125 g ai/ha
  Plant response rating (0 to 100 scale), Crabgrass, Large: 0
[4]; Postemergence, 500 g ai/ha
  Plant response rating (0 to 100 scale), Crabgrass, Large: 0
[4]; Preemergence, 125 g ai/ha
  Crabgrass, Large plant response rating (0 = no effect, 100 = complete control): 0
[4]; Preemergence, 500 g ai/ha
  Plant response rating (0 to 100 scale), Crabgrass, Large: 0
[5]; Postemergence, 125 g ai/ha
  Plant response rating (0 to 100 scale), Morningglory: 0
[5]; Postemergence, 500 g ai/ha
  Plant response rating (0 to 100 scale), Morningglory: 0
[5]; Preemergence, 125 g ai/ha
  Morningglory plant response rating (0 = no effect, 100 = complete control): 0
[5]; Preemergence, 500 g ai/ha
  Plant response rating (0 to 100 scale), Morningglory: 0
[6]; Postemergence, 125 g ai/ha
  Plant response rating (0 to 100 scale), Pigweed: 30
[6]; Postemergence, 500 g ai/ha
  Plant response rating (0 to 100 scale), Pigweed: 60
[6]; Preemergence, 125 g ai/ha
  Pigweed plant response rating (0 = no effect, 100 = complete control): 0
[6]; Preemergence, 500 g ai/ha
  Plant response rating (0 to 100 scale), Pigweed: 60
[7]; Postemergence, 125 g ai/ha
  Plant response rating (0 to 100 scale), Velvetleaf: 40
[7]; Postemergence, 500 g ai/ha
  Plant response rating (0 to 100 scale), Velvetleaf: 80
[7]; Preemergence, 125 g ai/ha
  Velvetleaf plant response rating (0 = no effect, 100 = complete control): 0
[7]; Preemergence, 500 g ai/ha
  Plant response rating (0 to 100 scale), Velvetleaf: 60
[8]; Postemergence, 125 g ai/ha
  Plant response rating (0 to 100 scale), Wheat: 0
[8]; Postemergence, 500 g ai/ha
  Plant response rating (0 to 100 scale), Wheat: 0
[8]; Preemergence, 125 g ai/ha
  Wheat plant response rating (0 = no effect, 100 = complete control): 0
[8]; Preemergence, 500 g ai/ha
  Plant response rating (0 to 100 scale), Wheat: 0
[9]
  Plant response rating, Barnyardgrass: 0
[10]
  Plant response rating, Ducksalad: 0
[11]
  Plant response rating, Rice: 0
[12]
  Plant response rating, Sedge, Umbrella: 30

## Fc1cc(Cl)cc(-c2n[nH]cc2C(=NN2CCCC2)c2ccccc2)c1 [Compound 42]
[1]; Postemergence, 1000 g ai/ha
  Plant response rating (0 to 100 scale), Barnyardgrass: 0
[1]; Preemergence, 1000 g ai/ha
  Plant response rating (0 to 100 scale), Barnyardgrass: 0
[2]; Postemergence, 1000 g ai/ha
  Plant response rating (0 to 100 scale), Corn: 0
[2]; Preemergence, 1000 g ai/ha
  Plant response rating (0 to 100 scale), Corn: 0
[3]; Postemergence, 1000 g ai/ha
  Plant response rating (0 to 100 scale), Foxtail, Giant: 0
[3]; Preemergence, 1000 g ai/ha
  Plant response rating (0 to 100 scale), Foxtail, Giant: 0
[4]; Postemergence, 1000 g ai/ha
  Plant response rating (0 to 100 scale), Crabgrass, Large: 0
[4]; Preemergence, 1000 g ai/ha
  Plant response rating (0 to 100 scale), Crabgrass, Large: 0
[5]; Postemergence, 1000 g ai/ha
  Plant response rating (0 to 100 scale), Morningglory: 0
[5]; Preemergence, 1000 g ai/ha
  Plant response rating (0 to 100 scale), Morningglory: 0
[6]; Postemergence, 1000 g ai/ha
  Plant response rating (0 to 100 scale), Pigweed: 100
[6]; Preemergence, 1000 g ai/ha
  Plant response rating (0 to 100 scale), Pigweed: 100
[7]; Postemergence, 1000 g ai/ha
  Plant response rating (0 to 100 scale), Velvetleaf: 100
[7]; Preemergence, 1000 g ai/ha
  Plant response rating (0 to 100 scale), Velvetleaf: 100
[8]; Postemergence, 1000 g ai/ha
  Plant response rating (0 to 100 scale), Wheat: 0
[8]; Preemergence, 1000 g ai/ha
  Plant response rating (0 to 100 scale), Wheat: 0
[9]
  Plant response rating, Barnyardgrass: 0
[10]
  Plant response rating, Ducksalad: 0
[11]
  Plant response rating, Rice: 0
[12]
  Plant response rating, Sedge, Umbrella: 0

## N#CCn1cc(C(=O)c2ccccc2)c(-c2cc(Cl)cc(Cl)c2)n1 [Compound 43]
[1]; Postemergence, 125 g ai/ha
  Plant response rating (0 to 100 scale), Barnyardgrass: 0
[1]; Postemergence, 500 g ai/ha
  Plant response rating (0 to 100 scale), Barnyardgrass: 0
[1]; Preemergence, 125 g ai/ha
  Barnyardgrass plant response rating (0 = no effect, 100 = complete control): 0
[1]; Preemergence, 500 g ai/ha
  Plant response rating (0 to 100 scale), Barnyardgrass: 0
[2]; Postemergence, 125 g ai/ha
  Plant response rating (0 to 100 scale), Corn: 0
[2]; Postemergence, 500 g ai/ha
  Plant response rating (0 to 100 scale), Corn: 0
[2]; Preemergence, 125 g ai/ha
  Corn plant response rating (0 = no effect, 100 = complete control): 0
[2]; Preemergence, 500 g ai/ha
  Plant response rating (0 to 100 scale), Corn: 0
[3]; Postemergence, 125 g ai/ha
  Plant response rating (0 to 100 scale), Foxtail, Giant: 0
[3]; Postemergence, 500 g ai/ha
  Plant response rating (0 to 100 scale), Foxtail, Giant: 0
[3]; Preemergence, 125 g ai/ha
  Foxtail, Giant plant response rating (0 = no effect, 100 = complete control): 0
[3]; Preemergence, 500 g ai/ha
  Plant response rating (0 to 100 scale), Foxtail, Giant: 0
[4]; Postemergence, 125 g ai/ha
  Plant response rating (0 to 100 scale), Crabgrass, Large: 0
[4]; Postemergence, 500 g ai/ha
  Plant response rating (0 to 100 scale), Crabgrass, Large: 0
[4]; Preemergence, 125 g ai/ha
  Crabgrass, Large plant response rating (0 = no effect, 100 = complete control): 0
[4]; Preemergence, 500 g ai/ha
  Plant response rating (0 to 100 scale), Crabgrass, Large: 0
[5]; Preemergence, 125 g ai/ha
  Morningglory plant response rating (0 = no effect, 100 = complete control): 0
[5]; Preemergence, 500 g ai/ha
  Plant response rating (0 to 100 scale), Morningglory: 0
[6]; Postemergence, 125 g ai/ha
  Plant response rating (0 to 100 scale), Pigweed: 50
[6]; Postemergence, 500 g ai/ha
  Plant response rating (0 to 100 scale), Pigweed: 80
[6]; Preemergence, 125 g ai/ha
  Pigweed plant response rating (0 = no effect, 100 = complete control): 0
[6]; Preemergence, 500 g ai/ha
  Plant response rating (0 to 100 scale), Pigweed: 40
[7]; Postemergence, 125 g ai/ha
  Plant response rating (0 to 100 scale), Velvetleaf: 20
[7]; Postemergence, 500 g ai/ha
  Plant response rating (0 to 100 scale), Velvetleaf: 80
[7]; Preemergence, 125 g ai/ha
  Velvetleaf plant response rating (0 = no effect, 100 = complete control): 30
[7]; Preemergence, 500 g ai/ha
  Plant response rating (0 to 100 scale), Velvetleaf: 30
[8]; Postemergence, 125 g ai/ha
  Plant response rating (0 to 100 scale), Wheat: 0
[8]; Postemergence, 500 g ai/ha
  Plant response rating (0 to 100 scale), Wheat: 0
[8]; Preemergence, 125 g ai/ha
  Wheat plant response rating (0 = no effect, 100 = complete control): 0
[8]; Preemergence, 500 g ai/ha
  Plant response rating (0 to 100 scale), Wheat: 0
[9]
  Plant response rating, Barnyardgrass: 0
[10]
  Plant response rating, Ducksalad: 0
[11]
  Plant response rating, Rice: 0
[12]
  Plant response rating, Sedge, Umbrella: 0
